pIC50: −log10 of the molar value.
Experiments:
[1] = test system: plasma ALP (80-90% containing TNAP); experiment: Inhibitory test of plasma TNAP activity in B6 mouse; type: in vivo; details: oral, average 0-6 h after administration
Procedure: After blood sampling from the tail vein using a heparin-treated hematocrit capillary tube (EM Meister Hematocrit Capillary Tube, AS ONE Corp.) (as the sample before compound administration), each test compound suspended in a 0.5% methylcellulose solution (powder purchased from Wako Pure Chemical Industries, Ltd. was adjusted to 0.5% with Otsuka distilled water) was administered orally to the mouse. 1, 2, 4, 6, and 24 hours after the administration, blood was collected from the tail vein using a heparin-treated hematocrit capillary tube to obtain a plasma sample. The plasma sample was added to an assay buffer (1 M Tris, 1 M MgCl2, 20 mM ZnCl2, and water, pH 7.5), and the mixture was left standing for 5 minutes. Then, the absorbance at 405 nm was measured and used as a blank. The substrate pNPP was added to the plasma sample and incubated at room temperature for 180 minutes. Then, the absorbance (ABS: 405 nm) was measured using a microplate reader (model plus 384, Molecular Devices, LLC), and the concentration of produced p-nitrophenol was calculated. The blank was subtracted from all measurement values to calculate TNAP activity at each time point with the TNAP activity of the sample before compound administration defined as 100%. The pharmaceutical effect of the test compound was evaluated by the average inhibition of plasma ALP (80-90% containing TNAP) activity for 6 hours from 0 hour to 6 hour after the administration of the test compound. It was calculated according to the following expression: 100−((plasma ALP activity at 0 hr+plasma ALP activity at 1 hr)*½+(plasma ALP activity at 1 hr+plasma ALP activity at 2 hr)*½+(plasma ALP activity at 2 hr+plasma ALP activity at 4 hr)*2/2+(plasma ALP activity at 4 hr+plasma ALP activity at 6 hr)*2/2)/6 The results are shown in Table 2.

human TNAP = human TNAP (Homo sapiens (Human), UniProt P05186); experiment: Inhibitory test of TNAP activity (pNPP substrate, p-nitrophenol production); type: biochemical; details: human TNAP from transfected COS1 culture supernatant, 60 minutes at room temperature
Sequence of human TNAP (P05186 18-524): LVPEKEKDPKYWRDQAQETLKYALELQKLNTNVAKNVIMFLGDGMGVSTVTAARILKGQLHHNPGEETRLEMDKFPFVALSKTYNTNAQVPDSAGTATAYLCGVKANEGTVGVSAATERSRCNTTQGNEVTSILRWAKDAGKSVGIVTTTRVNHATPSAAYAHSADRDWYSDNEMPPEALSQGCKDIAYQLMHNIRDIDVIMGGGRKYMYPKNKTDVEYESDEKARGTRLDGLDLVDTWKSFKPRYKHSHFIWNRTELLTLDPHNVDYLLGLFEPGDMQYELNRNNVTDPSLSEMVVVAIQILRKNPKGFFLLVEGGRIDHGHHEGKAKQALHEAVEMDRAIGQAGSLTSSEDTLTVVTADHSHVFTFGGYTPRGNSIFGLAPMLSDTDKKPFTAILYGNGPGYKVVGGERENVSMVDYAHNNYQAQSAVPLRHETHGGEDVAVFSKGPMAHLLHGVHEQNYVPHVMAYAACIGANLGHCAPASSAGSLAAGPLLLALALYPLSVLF
Procedure: COS1 cells (DS Pharma Biomedical Co., Ltd.) were transfected with human TNAP (OriGene Technologies, Inc.) using Lipofectamine LTX & Plus reagent (Invitrogen Corp.). On the next day, the medium was replaced with a fresh medium, and the cells were cultured in an incubator for 3 days. After 3 days, the culture supernatant was collected and concentrated by centrifugation at 5000 G for 30 minutes using Amicon 14, 10^4 cut (Merck Millipore). The concentrated culture supernatant was dialyzed against 5 L of 50 mM Tris/200 mM NaCl/1 mM MgCl2/20 μM ZnCl2 twice and used as an enzyme source (enzyme solution). The substrate pNPP (ProteoChem Inc.) was adjusted to 3.1 mM with Milli-Q water, and a solution of each test compound dissolved in dimethyl sulfoxide (DMSO; Wako Pure Chemical Industries, Ltd.) by 6 serial dilutions at a 5-fold common ratio from 100 μM, or DMSO was added thereto at a final concentration of 1% by volume. The enzyme solution adjusted to 2 μg/mL with an assay buffer (200 mM Tris/2 mM MgCl2/0.04 mM ZnCl2/0.01% Tween 20) was added in the same amount of the substrate solution and incubated at room temperature for 60 minutes. Then, the absorbance (ABS: 405 nm) was measured using a microplate reader (model plus 384, Molecular Devices, LLC), and the concentration of produced p-nitrophenol was calculated.

Compound	pIC50 (human TNAP)	also measured
O=C1c2cc([N-]S(=O)(=O)c3cc(Cl)ccc3OC(F)(F)F)cnc2OC[C@H]2C[C@H](O)CN12.[K+] [Example 33, Potassium {[5-chloro-2-(trifluoromethoxy)phenyl]sulfonyl}[(8S,9aR)-8-hydroxy-5-oxo-8,9,9a,10-tetrahydro-5H,7H-pyrido[3,2-f]pyrrolo[2,1-c][1,4]oxazepin-3-yl]azanide]		Plasma ALP inhibition (6 h ave. inhibition %) ([1]; dose 0.3 mg/kg): 59.0%
CCOc1ccc(F)cc1S(=O)(=O)[N-]c1cnc2c(c1)-c1ccnn1[C@@H](C)CO2.[K+] [Example 19, Potassium [(2-ethoxy-5-fluorophenyl)sulfonyl][(5S)-5-methyl-5,6-dihydropyrazolo[1,5-d]pyrido[3,2-f][1,4]oxazepin-10-yl]azanide]		Plasma ALP inhibition (6 h ave. inhibition %) ([1]; dose 3 mg/kg): 27.5%
O=C1c2cc([N-]S(=O)(=O)c3cc(Cl)ccc3OC(F)(F)F)cnc2OC[C@H]2C[C@@H](O)CN12.[K+] [Example 38, Potassium {[5-chloro-2-(trifluoromethoxy)phenyl]sulfonyl}[(8R,9aR)-8-hydroxy-5-oxo-8,9,9a,10-tetrahydro-5H,7H-pyrido[3,2-f]pyrrolo[2,1-c][1,4]oxazepin-3-yl]azanide]		Plasma ALP inhibition (6 h ave. inhibition %) ([1]; dose 0.3 mg/kg): 65.5%
CCOc1ncc(F)cc1S(=O)(=O)[N-]c1cnc2c(c1)-c1ccnn1[C@@H](C)CO2.[K+] [Example 25, potassium [(2-ethoxy-5-fluoropyridin-3-yl)sulfonyl][(5S)-5-methyl-5,6-dihydropyrazolo[1,5-d]pyrido[3,2-f][1,4]oxazepin-10-yl]azanide]		Plasma ALP inhibition (6 h ave. inhibition %) ([1]; dose 3 mg/kg): 55.5%
COc1ccc(Cl)cc1S(=O)(=O)Nc1cnc2c(c1)-c1nnc(C(C)C)n1CCO2 [Example 5, 5-chloro-2-methoxy-N-[3-(propan-2-yl)-5,6-dihydropyrido[3,2-f][1,2,4]triazolo[4,3-d][1,4]oxazepin-10-yl]benzenesulfonamide]	8.55	
O=C1[C@@H](O)C[C@H]2COc3ncc(NS(=O)(=O)c4cc(Cl)ccc4OC(F)(F)F)cc3CN12 [Example 56, 5-chloro-N-[(8S,9aS)-8-hydroxy-7-oxo-8,9,9a,10-tetrahydro-5H,7H-pyrido[3,2-f]pyrrolo[2,1-c][1,4]oxazepin-3-yl]-2-(trifluoromethoxy)benzenesulfonamide]	8.85	
CC(=O)O[C@H]1C[C@@H]2COc3ncc(NS(=O)(=O)c4cc(Cl)ccc4OC(F)(F)F)cc3C(=O)N2C1 [Example 47, (8S,9aR)-3-({[5-chloro-2-(trifluoromethoxy)phenyl]sulfonyl}amino)-5-oxo-8,9,9a,10-tetrahydro-5H,7H-pyrido[3,2-f]pyrrolo[2,1-c][1,4]oxazepin-8-yl acetate]	8.82	
CCOc1ncc(Cl)cc1S(=O)(=O)Nc1cnc2c(c1)-c1ccnn1CCO2 [Example 13, 5-chloro-N-(5,6-dihydropyrazolo[1,5-d]pyrido[3,2-f][1,4]oxazepin-10-yl)-2-ethoxypyridine-3-sulfonamide]	8.29	
O=C1c2cc(NS(=O)(=O)c3cc(F)ccc3OC(F)(F)F)cnc2OC[C@H]2C[C@@H](O)CN12 [Example 39, 5-fluoro-N-[(8R,9aR)-8-hydroxy-5-oxo-8,9,9a,10-tetrahydro-5H,7H-pyrido[3,2-f]pyrrolo[2,1-c][1,4]oxazepin-3-yl]-2-(trifluoromethoxy)benzenesulfonamide]	8.62	
COc1ccc(Cl)cc1S(=O)(=O)Nc1cnc2c(c1)CN1C(=O)CCC[C@H]1CO2 [Example 59, 5-chloro-2-methoxy-N-[(10aS)-7-oxo-7,8,9,10,10a, 11-hexahydro-5H-dipyrido[2,1-c:3′,2′-f][1,4]oxazepin-3-yl]benzenesulfonamide]	8.85	
COc1ccc(Cl)cc1S(=O)(=O)Nc1cnc2c(c1)CN1C(=O)CN(C)C[C@H]1CO2 [Example 64, 5-chloro-2-methoxy-N-[(10aS)-9-methyl-7-oxo-7,8,9,10,10a, 11-hexahydro-5H-pyrazino[2,1-c]pyrido[3,2-f][1,4]oxazepin-3-yl]benzenesulfonamide]	8.74	
COc1ccc(Cl)cc1S(=O)(=O)Nc1cnc2c(c1)-c1ccnn1[C@H](C)CO2 [Example 17, 5-chloro-2-methoxy-N-[(5R)-5-methyl-5,6-dihydropyrazolo[1,5-d]pyrido[3,2-f][1,4]oxazepin-10-yl]benzenesulfonamide]	8.16	
CCc1nnc2n1CCOc1ncc(NS(=O)(=O)c3cc(Cl)ccc3OC)cc1-2 [Example 3, 5-chloro-N-(3-ethyl-5,6-dihydropyrido[3,2-f][1,2,4]triazolo[4,3-d][1,4]oxazepin-10-yl)-2-methoxybenzenesulfonamide]	8.62	
COc1ncc(Cl)cc1S(=O)(=O)Nc1cnc2c(c1)-c1ccnn1[C@@H](C)CO2 [Example 21, 5-chloro-2-methoxy-N-[(5S)-5-methyl-5,6-dihydropyrazolo[1,5-d]pyrido[3,2-f][1,4]oxazepin-10-yl]pyridine-3-sulfonamide]	8.52	
CNC(=O)O[C@H]1C[C@@H]2COc3ncc(NS(=O)(=O)c4cc(Cl)ccc4OC)cc3C(=O)N2C1 [Example 48, (8S,9aR)-3-{[(5-chloro-2-methoxyphenyl)sulfonyl]amino}-5-oxo-8,9,9a,10-tetrahydro-5H, 7H-pyrido[3,2-f]pyrrolo[2,1-c][1,4]oxazepin-8-yl methylcarbamate]	9.22	
COc1ccc(Cl)cc1S(=O)(=O)Nc1cnc2c(c1)C(=O)N1C[C@H](O)C[C@H]1CO2 [Example 29, 5-chloro-N-[(8R,9aS)-8-hydroxy-5-oxo-8,9,9a,10-tetrahydro-5H,7H-pyrido[3,2-f]pyrrolo[2,1-c][1,4]oxazepin-3-yl]-2-methoxybenzenesulfonamide]	8.15	
COc1ccc(Cl)cc1S(=O)(=O)Nc1cnc2c(c1)C(=O)N1CC[C@@H](O)[C@@H]1CO2 [Example 40, 5-chloro-N-[(9R,9aS)-9-hydroxy-5-oxo-8,9,9a,10-tetrahydro-5H,7H-pyrido[3,2-f]pyrrolo[2,1-c][1,4]oxazepin-3-yl]-2-methoxybenzenesulfonamide]	8.24	
CCOc1ccc(F)cc1S(=O)(=O)Nc1cnc2c(c1)-c1ccnn1[C@H](C)CO2 [Example 20, 2-ethoxy-5-fluoro-N-[(5R)-5-methyl-5,6-dihydropyrazolo[1,5-d]pyrido[3,2-f][1,4]oxazepin-10-yl]benzenesulfonamide]	8.38	
COc1ccc(Cl)cc1S(=O)(=O)Nc1cnc2c(c1)-c1nccn1CCO2 [Example 6, 5-chloro-N-(5,6-dihydroimidazo[1,2-d]pyrido[3,2-f][1,4]oxazepin-10-yl)-2-methoxybenzenesulfonamide]	8.23	
COc1ccc(Cl)cc1S(=O)(=O)Nc1cnc2c(c1)-c1nnc(C)n1CCO2 [Example 1, 5-chloro-2-methoxy-N-(3-methyl-5,6-dihydropyrido[3,2-f][1,2,4]triazolo[4,3-d][1,4]oxazepin-10-yl)benzenesulfonamide]	8.59	
CCOc1ncc(F)cc1S(=O)(=O)Nc1cnc2c(c1)-c1ccnn1CCO2 [Example 14, N-(5,6-dihydropyrazolo[1,5-d]pyrido[3,2-f][1,4]oxazepin-10-yl)-2-ethoxy-5-fluoropyridine-3-sulfonamide]	8.44	
O=C1c2cc(NS(=O)(=O)c3cc(Cl)ccc3OC(F)(F)F)cnc2OC[C@H]2C[C@@H](O)CN12 [Example 37, 5-chloro-N-[(8R,9aR)-8-hydroxy-5-oxo-8,9,9a,10-tetrahydro-5H,7H-pyrido[3,2-f]pyrrolo[2,1-c][1,4]oxazepin-3-yl]-2-(trifluoromethoxy)benzenesulfonamide]	8.85	
COC(=O)N[C@@H]1C[C@@H]2COc3ncc(NS(=O)(=O)c4cc(Cl)ccc4OC)cc3C(=O)N2C1 [Example 50, methyl [(8R,9aR)-3-{[(5-chloro-2-methoxyphenyl)sulfonyl]amino}-5-oxo-8,9,9a,10-tetrahydro-5H, 7H-pyrido[3,2-f]pyrrolo[2,1-c][1,4]oxazepin-8-yl]carbamate]	9.30	
